# Reference: US20210093619A1, “Chemical Compounds as ATF-4 Pathway Inhibitors” (GlaxoSmithKline Intellectual Property Development Limited, priority 2017, published 2021)
# System: ATF4 pathway
# Assay: ATF4 Cell Based Assay (SH-SY5Y-ATF4-NanoLuc reporter, Thapsigargin challenge)
# Conditions: SH-SY5Y-ATF4-NanoLuc cells, Thapsigargin 14-18 hours; average of a set of two or more experimental runs; read-out: average ATF4 pathway inhibitory activity (IC50)
# Description: The ATF4 reporter assay measures the effect of Thapsigargin induced cellular stress on ATF4 expression. For this reporter assay, a stable cell line was created by transfecting SH-SY5Y cells with a plasmid containing the NanoLuc® luciferase gene fused to the 5′-UTR of ATF4, under the control of the CMV promoter. The ATF4 5′-UTR contains two open reading frames which mediate the cellular stress-dependent translation of the reporter gene. Clones stably expressing the reporter construct were isolated and selected based on the luminescence response to thapsigargin and inhibition of this signal by test compounds. Briefly, SH-SY5Y-ATF4-NanoLuc cells were challenged with Thapsigargin for 14-18 hours to determine the stress effect with or without test compounds.
# Cells were propagated in growth media consisting of 90% DMEM F12 (InVitrogen #11320-033), 10% Fetal Bovine Serum (Gibco #10438-026), 5mM Glutamax (Gibco #35050-061), 5 mM Hepes, (Gibco #15630-080), and 0.5 mg/ml Geneticin (Gibco #10131-027). Cells were prepared for the assay by removing all media from cells, washing the plated cells with phosphate buffered saline, and detached by adding a solution comprised of 10% Tryple express solution (InVitrogen12604-021) and 90% enzyme-free cell dissociation buffer HANKS base (Gibco 13150-016). The trypsin was deactivated by adding assay media comprised of 90% phenol-red free DMEM F12 (InVitrogen, 11039), 10% Fetal Bovine Serum (Gibco #10438-026),(5 mM Glutamax (Gibco #35050-061), 5 mM Hepes, (Gibco #15630-080), and 0.5 mg/ml Geneticin (Gibco #10131-027). Suspended cells were spun down at 300 g for 5 min, the supernatant was removed and the cell pellet was suspended in warm media (30-37° C.) comprised as above but without 10% Fetal Bovine Serum to a concentration of 1 e6 cells/ml.
# Assay plates were prepared by adding 250 nL of compound stock solution in 100% DMSO to each well, followed by dispensing 20 microliters/well cell suspension to deliver 15-20 k cell/well. Cells were incubated for 1 hour at 37° C. Then, 5 μL of 1.5 μM or 1 μM of Thapsigargin (final concentration: 200-300 nM) was added to each well of cells. Assay plates containing cells were incubated for 14-18 hours at 37° C.
# The measurement of luciferase produced by the ATF4 constructs was measured as follows. Aliquots of the Nano-Glo reagent (Nano-Glo® Luciferase Assay Substrate, Promega, N113, Nano-Glo® Luciferase Assay Buffer, Promega, N112 (parts of Nano-Glo® Luciferase Assay System, N1150) were brought to room temperature, the substrate and buffer were mixed according to manufacturer's instructions. The cell plates were equilibrated to room temperature. 25 microliters/well of the mixed Nano-Glo reagent were dispensed into assay wells and pulse spun to settle contents and the plate was sealed with film. The plates were incubated at room temperature for 1 hour before detecting luminescence on an EnVision® plate reader.
row,Structure (SMILES),IC50 [nM]
1,"O=C(COc1cccc(Cl)c1)NC12CC(N3CCN(c4ccc(Cl)cc4)C3=O)(C1)C2 [Example 1g, 2-(3-chlorophenoxy)-N-(3-(3-(4-chlorophenyl)-2-oxoimidazolidin-1-yl)bicyclo[1.1.1]pentan-1-yl)acetamide]",17
2,"O=C(COc1ccc(Cl)cn1)NC12CC(N3CCN(c4ccc(Cl)cc4)C3=O)(C1)C2 [Example 1k, N-(3-(3-(4-chlorophenyl)-2-oxoimidazolidin-1-yl)bicyclo[1.1.1]pentan-1-yl)-2-((5-chloropyridin-2-yl)oxy)acetamide]",34
3,"O=C(COc1ccc(Cl)c(C(F)(F)F)c1)NC12CC(N3CCN(c4ccc(Cl)cc4)C3=O)(C1)C2 [Example 1l, 2-(4-chloro-3-(trifluoromethyl)phenoxy)-N-(3-(3-(4-chlorophenyl)-2-oxoimidazolidin-1-yl)bicyclo[1.1.1]pentan-1-yl)acetamide]",1.6
4,"O=C(COc1ccc(Cl)c(F)c1)NC12CC(N3CCN(c4ccc(Cl)cc4)C3=O)(C1)C2 [Example 1m, 2-(4-chloro-3-fluorophenoxy)-N-(3-(3-(4-chlorophenyl)-2-oxoimidazolidin-1-yl)bicyclo[1.1.1]pentan-1-yl)acetamide]",0.6
5,"O=C(COc1ccc(F)c(Cl)c1)NC12CC(N3CCN(c4ccc(Cl)cc4)C3=O)(C1)C2 [Example 1o, 2-(3-chloro-4-fluorophenoxy)-N-(3-(3-(4-chlorophenyl)-2-oxoimidazolidin-1-yl)bicyclo[1.1.1]pentan-1-yl)acetamide]",10.3
6,"O=C(COc1ccc(Cl)cc1)NC12CC(N3CCN(c4ccc(C(F)(F)F)cc4)C3=O)(C1)C2 [Example 1r, 2-(4-chlorophenoxy)-N-(3-(2-oxo-3-(4-(trifluoromethyl)phenyl)imidazolidin-1-yl)bicyclo[1.1.1]pentan-1-yl)acetamide]",1.8
7,"COc1ccc(N2CCN(C34CC(NC(=O)COc5ccc(Cl)cc5)(C3)C4)C2=O)cc1 [Example 1t, 2-(4-chlorophenoxy)-N-(3-(3-(4-methoxyphenyl)-2-oxoimidazolidin-1-yl)bicyclo[1.1.1]pentan-1-yl)acetamide]",51.7
8,"O=C(COc1ccc(Cl)cc1)NC12CC(N3CCN(c4ccc(Cl)cc4F)C3=O)(C1)C2 [Example 1v, N-(3-(3-(4-chloro-2-fluorophenyl)-2-oxoimidazolidin-1-yl)bicyclo[1.1.1]pentan-1-yl)-2-(4-chlorophenoxy)acetamide]",23.2
9,"O=C(COc1ccc(Cl)cc1)NC12CC(NC3CN(c4ccc(Cl)cc4)C3)(C1)C2 [Example 3a, 2-(4-chlorophenoxy)-N-(3-((1-(4-chlorophenyl)azetidin-3-yl)amino)bicyclo[1.1.1]pentan-1-yl)acetamide]",3.6 to 13.6
10,"O=C(COc1ccc(Cl)cc1)NC12CC(N3CC(Oc4ccc(Cl)cc4)C3)(C1)C2 [Example 3b, 2-(4-chlorophenoxy)-N-(3-(3-(4-chlorophenoxy)azetidin-1-yl)bicyclo[1.1.1]pentan-1-yl)acetamide]",3.6 to 13.6
11,"O=C(COc1ccc(Cl)cc1)NC12CCC(NC(=O)COc3ccc(Cl)nc3)(CC1)CC2 [Example III, 2-(4-chlorophenoxy)-N-(4-(2-((6-chloropyridin-3-yl)oxy)acetamido)bicyclo[2.2.2]octan-1-yl)acetamide]",8.89
12,"Cc1ccc(OCC(=O)NC23CC(NC(=O)COc4ccc(Cl)cc4)(C2)C3)cn1 [Example IX, 2-(4-chlorophenoxy)-N-(3-(2-((6-methylpyridin-3-yl)oxy)acetamido)bicyclo[1.1.1]pentan-1-yl)acetamide]",300
13,"O=C(COc1ccc(Cl)cc1)NC12CC(NC(=O)Cc3ccc(Cl)cc3)(C1)C2 [Example VI, 2-(4-chlorophenoxy)-N-(3-(2-(4-chlorophenyl)acetamido)bicyclo[1.1.1]pentan-1-yl)acetamide]",4.1
14,"O=C(COc1ccc(Cl)cc1)NC12CC(NC(=O)c3ccc(Cl)cc3)(C1)C2 [Example XII, 4-chloro-N-(3-(2-(4-chlorophenoxy)acetamido)bicyclo[1.1.1]pentan-1-yl)benzamide]",25.2
15,"COC(=O)CN(CCOc1ccc(Cl)cc1)C12CC(NC(=O)COc3ccc(Cl)cc3)(C1)C2 [Example XVI, methyl N-(3-(2-(4-chlorophenoxy)acetamido)bicyclo[1.1.1]pentan-1-yl)-N-(2-(4-chlorophenoxy)ethyl)glycinate]",13
16,"O=C(COc1ccc(Cl)cc1)NC12CC(NCCNc3ccc(Cl)cc3)(C1)C2 [Example XXI, 2-(4-chlorophenoxy)-N-(3-((2-((4-chlorophenyl)amino)ethyl)amino)bicyclo[1.1.1]pentan-1-yl)acetamide]",33
17,O=C(COc1ccc(Cl)cc1)NC12CC(N3CCC(Oc4ccc(Cl)cc4)C3)(C1)C2 (centres unmarked) [XXIV and 6a],7.3

# The next lines start with the values.
row,IC50 [nM],Structure (SMILES)
1,20,"O=C(COc1ccc(F)cc1)NC12CC(N3CCC(Oc4ccc(Cl)cc4)C3)(C1)C2 (single isomer, unassigned) [Example 6e, N-(3-(3-(4-chlorophenoxy)pyrrolidin-1-yl)bicyclo[1.1.1]pentan-1-yl)-2-(4-fluorophenoxy)acetamide]"
2,5.7,"O=C(COc1ccc(Cl)c(F)c1)NC12CC(N3CCC(Oc4ccc(Cl)cc4)C3)(C1)C2 (single isomer, unassigned) [Example 6o, 2-(4-chloro-3-fluorophenoxy)-N-(3-(3-(4-chlorophenoxy)pyrrolidin-1-yl)bicyclo[1.1.1]pentan-1-yl)acetamide]"
3,9.9,"O=C(COc1ccc(Cl)cc1)NC12CC(N3CCC(Oc4ccc(Cl)c(F)c4)C3)(C1)C2 (single isomer, unassigned) [Example 6v, N-(3-(3-(4-chloro-3-fluorophenoxy)pyrrolidin-1-yl)bicyclo[1.1.1]pentan-1-yl)-2-(4-chlorophenoxy)acetamide]"
4,6.7,"O=C(COc1ccc(Cl)cc1)NC12CC(N3CCC(Oc4ccc(Cl)cc4)C3)(C1)C2 (stereo in doubt) [Example 6c, (R)-2-(4-chlorophenoxy)-N-(3-(3-(4-chlorophenoxy)pyrrolidin-1-yl)bicyclo[1.1.1]pentan-1-yl)acetamide]"
5,12.2,"O=C(COc1ccc(Cl)cc1)NC12CC(NC(=O)COc3ccc4c(c3)CCCO4)(C1)C2 [Example 4d, 2-(4-chlorophenoxy)-N-(3-(2-(chroman-6-yloxy)acetamido)bicyclo[1.1.1]pentan-1-yl)acetamide]"
6,6.9,"O=C(COc1ccc(C(F)(F)F)cc1)NC12CC(N3CCC(Oc4ccc(Cl)cc4)C3)(C1)C2 (centres unmarked) [Example 6i, N-(3-(3-(4-chlorophenoxy)pyrrolidin-1-yl)bicyclo[1.1.1]pentan-1-yl)-2-(4-(trifluoromethyl)phenoxy)acetamide]"
7,24.6,"O=C(COc1ccc(Cl)c(C(F)(F)F)c1)NC12CC(N3CCC(Oc4ccc(Cl)cc4)C3)(C1)C2 (centres unmarked) [Example 6k, 2-(4-chloro-3-(trifluoromethyl)phenoxy)-N-(3-(3-(4-chlorophenoxy)pyrrolidin-1-yl)bicyclo[1.1.1]pentan-1-yl)acetamide]"
8,1.1,"O=C(COc1ccc(Cl)c(F)c1)NC12CC(N3CCC(Oc4ccc(Cl)cc4)C3)(C1)C2 (centres unmarked) [Example 6q, 2-(4-chloro-3-fluorophenoxy)-N-(3-(3-(4-chlorophenoxy)pyrrolidin-1-yl)bicyclo[1.1.1]pentan-1-yl)acetamide]"
9,5.1,"O=C(COc1ccc(Cl)cc1)NC12CC(N3CCC(Oc4ccc(Cl)cc4)CC3)(C1)C2 [Example 8a, 2-(4-chlorophenoxy)-N-(3-(4-(4-chlorophenoxy)piperidin-1-yl)bicyclo[1.1.1]pentan-1-yl)acetamide]"
